# Target: T1, BA/F3-FLT3-ITD + F691L cells (Homo sapiens, UniProt P36888, F691L, cells depend on it, form not given)
# T1 sequence (P36888 1-993 F691L): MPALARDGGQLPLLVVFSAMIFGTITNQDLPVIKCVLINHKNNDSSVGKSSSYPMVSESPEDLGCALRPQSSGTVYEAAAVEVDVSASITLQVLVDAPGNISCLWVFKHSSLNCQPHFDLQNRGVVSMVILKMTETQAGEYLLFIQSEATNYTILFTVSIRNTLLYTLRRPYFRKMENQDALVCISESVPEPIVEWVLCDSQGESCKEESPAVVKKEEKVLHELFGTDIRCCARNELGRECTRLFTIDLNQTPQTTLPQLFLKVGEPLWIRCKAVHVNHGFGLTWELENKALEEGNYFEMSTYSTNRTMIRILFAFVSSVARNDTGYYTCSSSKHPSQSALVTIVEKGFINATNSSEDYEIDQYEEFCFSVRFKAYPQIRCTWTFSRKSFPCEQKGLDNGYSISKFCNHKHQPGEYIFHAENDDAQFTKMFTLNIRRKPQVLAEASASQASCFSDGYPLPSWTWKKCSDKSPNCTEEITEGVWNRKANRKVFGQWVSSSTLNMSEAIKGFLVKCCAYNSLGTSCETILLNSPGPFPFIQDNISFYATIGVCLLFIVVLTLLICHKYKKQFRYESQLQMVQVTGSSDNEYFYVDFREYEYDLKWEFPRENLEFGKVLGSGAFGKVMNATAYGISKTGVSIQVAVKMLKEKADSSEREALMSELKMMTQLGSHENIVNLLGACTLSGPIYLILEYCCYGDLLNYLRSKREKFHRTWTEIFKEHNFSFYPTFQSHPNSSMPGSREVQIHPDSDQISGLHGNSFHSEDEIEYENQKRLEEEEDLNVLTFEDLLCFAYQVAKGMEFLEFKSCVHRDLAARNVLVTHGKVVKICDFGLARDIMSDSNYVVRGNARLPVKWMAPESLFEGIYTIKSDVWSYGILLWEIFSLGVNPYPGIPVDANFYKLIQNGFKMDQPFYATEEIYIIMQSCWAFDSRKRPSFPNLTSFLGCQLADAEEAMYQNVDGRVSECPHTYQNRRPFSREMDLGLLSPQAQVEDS
# Assay: BA/F3-FLT3-ITD + F691L cell proliferation assay (CellTiter-Glo)
# Format: cell-based, murine
# Conditions: BaF3 FLT3 ITD/F691L cells; read-out: Cell Activity (IC50 μM) BaF3_FLT3_ITD/F691L
# In short: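 Three-day growth assay, IC50 from CellTiter-Glo ATP luminescence vs concentration. Compounds at 10 to 0.0046 μM (1:3 steps, final DMSO 0.2%) on 1×10^4 cells/well. Cells are IL-3-independent BA/F3 lines engineered to express full-length FLT3-ITD with the D835Y or the F691L mutation.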
row,Compound,GI50 [µM]
1,"COc1cc(-c2cc3c(-c4ccc5ncn(C(C)(C)C)c5c4)c[nH]c3nn2)ccn1 [P-315, 5-(3-tert-butylbenzimidazol-5-yl)-3-(2-methoxy-4-pyridyl)-7H-pyrrolo[2,3-c]pyridazine]",0.0001 to 1
2,"c1cc(N2CCOCC2)ncc1-c1cnc2[nH]cc(-c3ccc4ncn(C5CCCNC5)c4c3)c2n1 (centres unmarked) [P-325, 4-[5-[7-[3-(3-piperidyl)benzimidazol-5-yl]-5H-pyrrolo[2,3-b]pyrazin-2-yl]-2-pyridyl]morpholine]",0.0001 to 1
3,"CC(C)(C)n1cnc2ccc(-c3n[nH]c4ncc(-c5ccnc(N6CCOCC6)c5)cc34)cc21 [P-297, 4-[4-[3-(3-tert-butylbenzimidazol-5-yl)-1H-pyrazolo[3,4-b]pyridin-5-yl]-2-pyridyl]morpholine]",0.0001 to 1
4,"O=S1(=O)CCCN1c1cc(-c2cnc3[nH]cc(-c4ccc5ncn(C6CCCNC6)c5c4)c3c2)ccn1 (centres unmarked) [P-311, 2-[4-[3-[3-(3-piperidyl)benzimidazol-5-yl]-1H-pyrrolo[2,3-b]pyridin-5-yl]-2-pyridyl]-1,2-thiazolidine 1,1-dioxide]",0.0001 to 1
5,"CN1CCN(c2ccc(-c3cnc4[nH]cc(-c5ccc6ncn(C7CCCNC7)c6c5)c4n3)cc2)CC1 (centres unmarked) [P-344, 2-[4-(4-methylpiperazin-1-yl)phenyl]-7-[3-(3-piperidyl)benzimidazol-5-yl]-5H-pyrrolo[2,3-b]pyrazine]",0.0001 to 1
6,"Cc1ncc(C#Cc2cnc3[nH]cc(-c4ccc5ncn(C6CCCNC6)c5c4)c3n2)cn1 (centres unmarked) [P-285, 2-[2-(2-methylpyrimidin-5-yl)ethynyl]-7-[3-(3-piperidyl)benzimidazol-5-yl]-5H-pyrrolo[2,3-b]pyrazine]",0.0001 to 1
7,"CC(C)(C)n1cnc2ccc(-c3c[nH]c4ncc(-c5ccnc(N6CCCCC6)c5)nc34)cc21 [P-338, 7-(3-tert-butylbenzimidazol-5-yl)-2-[2-(1-piperidyl)-4-pyridyl]-5H-pyrrolo[2,3-b]pyrazine]",0.0001 to 1
8,"c1nc(N2CCOCC2)ncc1-c1cnc2[nH]cc(-c3ccc4ncn(C5CCCNC5)c4c3)c2c1 (centres unmarked) [P-277, 4-[5-[3-[3-(3-piperidyl)benzimidazol-5-yl]-1H-pyrrolo[2,3-b]pyridin-5-yl]pyrimidin-2-yl]morpholine]",0.0001 to 1
9,"CCN1CCN(c2cccc(-c3cnc4[nH]cc(-c5ccc6ncn(C7CCCNC7)c6c5)c4n3)c2)CC1 (centres unmarked) [P-329, 2-[3-(4-ethylpiperazin-1-yl)phenyl]-7-[3-(3-piperidyl)benzimidazol-5-yl]-5H-pyrrolo[2,3-b]pyrazine]",0.0001 to 1
10,"COc1ncc(-c2cnc3[nH]cc(-c4ccc5ncn(C6CCCNC6)c5c4)c3c2)cn1 (centres unmarked) [P-276, 5-(2-methoxypyrimidin-5-yl)-3-[3-(3-piperidyl)benzimidazol-5-yl]-1H-pyrrolo[2,3-b]pyridine]",10 to 200
11,"Cn1cnc2ccc(-c3c[nH]c4nnc(Cl)cc34)cc21 [P-313, 3-chloro-5-(3-methylbenzimidazol-5-yl)-7H-pyrrolo[2,3-c]pyridazine]",0.0001 to 1
12,"CC(C)(C)n1cnc2ccc(-c3c[nH]c4ncc(-c5cnc(C#N)nc5)nc34)cc21 [P-352, 5-[7-(3-tert-butylbenzimidazol-5-yl)-5H-pyrrolo[2,3-b]pyrazin-2-yl]pyrimidine-2-carbonitrile]",0.0001 to 1
13,"CN1CCN(c2cccc(-c3cnc4[nH]cc(-c5ccc6ncn(C7CCCNC7)c6c5)c4n3)c2)CC1 (centres unmarked) [P-332, 2-[3-(4-methylpiperazin-1-yl)phenyl]-7-[3-(3-piperidyl)benzimidazol-5-yl]-5H-pyrrolo[2,3-b]pyrazine]",0.0001 to 1
14,"COc1cnc2[nH]cc(-c3ccc4ncn(C(C)(C)C)c4c3)c2c1 [P-074, 1-tert-butyl-6-(5-methoxy-1H-pyrrolo[2,3-b]pyridin-3-yl)benzimidazole]",0.0001 to 1
15,"c1cc(N2CCOCC2)ncc1-c1cnc2[nH]cc(-c3ccc4ncn(C5CCCNC5)c4c3)c2c1 (centres unmarked) [P-321, 4-[5-[3-[3-(3-piperidyl)benzimidazol-5-yl]-1H-pyrrolo[2,3-b]pyridin-5-yl]-2-pyridyl]morpholine]",0.0001 to 1

# Next, values leading:
row,GI50 [µM],Compound
1,0.0001 to 1,"COc1cnc2[nH]cc(-c3ccc4ncn(-c5ccccc5)c4c3)c2c1 [P-068, 5-methoxy-3-(3-phenylbenzimidazol-5-yl)-1H-pyrrolo[2,3-b]pyridine]"
2,0.0001 to 1,"Cc1ncc(C#Cc2cnc3[nH]cc(-c4ccc5ncn(C(C)(C)C)c5c4)c3c2)cn1 [P-383, 1-tert-butyl-6-[5-[2-(2-methylpyrimidin-5-yl)ethynyl]-1H-pyrrolo[2,3-b]pyridin-3-yl]benzimidazole]"
3,0.0001 to 1,"CC(C)(O)c1ncc(-c2cnc3[nH]cc(-c4ccc5ncn(C(C)(C)C)c5c4)c3n2)cn1 [P-380, 2-[5-[7-(3-tert-butylbenzimidazol-5-yl)-5H-pyrrolo[2,3-b]pyrazin-2-yl]pyrimidin-2-yl]propan-2-ol]"
4,0.0001 to 1,"CC(C)(C)n1cnc2ccc(-c3c[nH]c4ncc(-c5ccc(N6CCOCC6)nc5)cc34)cc21 [P-322, 4-[5-[3-(3-tert-butylbenzimidazol-5-yl)-1H-pyrrolo[2,3-b]pyridin-5-yl]-2-pyridyl]morpholine]"
5,0.0001 to 1,"COc1cnc2[nH]cc(-c3ccc4ncn(C5CCC5)c4c3)c2c1 [P-061, 1-cyclobutyl-6-(5-methoxy-1H-pyrrolo[2,3-b]pyridin-3-yl)benzimidazole]"
6,0.0001 to 1,"O=S1(=O)CCCN1c1ccc(-c2cnc3[nH]cc(-c4ccc5ncn(C6CCCNC6)c5c4)c3c2)cc1 (centres unmarked) [P-319, 2-[4-[3-[3-(3-piperidyl)benzimidazol-5-yl]-1H-pyrrolo[2,3-b]pyridin-5-yl]phenyl]-1,2-thiazolidine 1,1-dioxide]"
7,0.0001 to 1,"Cc1ncc(-c2cnc3[nH]cc(-c4ccc5ncn(C(C)(C)C)c5c4)c3n2)cn1 [P-289, 7-(3-tert-butylbenzimidazol-5-yl)-2-(2-methylpyrimidin-5-yl)-5H-pyrrolo[2,3-b]pyrazine]"
8,0.0001 to 1,"COc1cnc2[nH]cc(-c3ccc4ncn(C5CCCNC5)c4c3)c2c1 (centres unmarked) [P-079, 5-methoxy-3-[3-(3-piperidyl)benzimidazol-5-yl]-1H-pyrrolo[2,3-b]pyridine]"
9,0.0001 to 1,"COc1cc(C#Cc2cnc3[nH]cc(-c4ccc5ncn(C(C)(C)C)c5c4)c3n2)ccn1 [P-279, 7-(1-(tert-butyl)-1H-benzo[d]imidazol-6-yl)-2-((2-methoxypyridin-4-yl)ethynyl)-5H-pyrrolo[2,3-b]pyrazine]"
10,0.0001 to 1,"CC(C)(C)n1cnc2ccc(-c3c[nH]c4ncc(-c5cnc(F)c(F)c5)nc34)cc21 [P-390, 7-(3-tert-butylbenzimidazol-5-yl)-2-(5,6-difluoro-3-pyridyl)-5H-pyrrolo[2,3-b]pyrazine]"
11,0.0001 to 1,"CCN1CCN(c2ccc(-c3cnc4[nH]cc(-c5ccc6ncn(C(C)(C)C)c6c5)c4n3)cc2)CC1 [P-358, 7-(3-tert-butylbenzimidazol-5-yl)-2-[4-(4-ethylpiperazin-1-yl)phenyl]-5H-pyrrolo[2,3-b]pyrazine]"
12,0.0001 to 1,"CCN1CCN(c2cccc(-c3cnc4[nH]cc(-c5ccc6ncn(C(C)(C)C)c6c5)c4n3)c2)CC1 [P-330, 7-(3-tert-butylbenzimidazol-5-yl)-2-[3-(4-ethylpiperazin-1-yl)phenyl]-5H-pyrrolo[2,3-b]pyrazine]"
13,0.0001 to 1,"COc1cc(C#Cc2cnc3[nH]cc(-c4ccc5ncn(C6CCCNC6)c5c4)c3n2)ccn1 (centres unmarked) [P-280, 2-((2-methoxypyridin-4-yl)ethynyl)-7-(1-(piperidin-3-yl)-1H-benzo[d]imidazol-6-yl)-5H-pyrrolo[2,3-b]pyrazine]"
14,0.0001 to 1,"CC(C)(C)n1cnc2ccc(-c3c[nH]c4ncc(-c5ccc(N6CCCCC6)cc5)nc34)cc21 [P-345, 7-(3-tert-butylbenzimidazol-5-yl)-2-[4-(1-piperidyl)phenyl]-5H-pyrrolo[2,3-b]pyrazine]"
15,0.0001 to 1,"CC(C)(C)n1cnc2ccc(-c3c[nH]c4ncc(-c5cccc(N6CCCCC6)c5)nc34)cc21 [P-336, 7-(3-tert-butylbenzimidazol-5-yl)-2-[3-(1-piperidyl)phenyl]-5H-pyrrolo[2,3-b]pyrazine]"
16,0.0001 to 1,"CC(C)(C)n1cnc2ccc(-c3c[nH]c4ncc(-c5ccnc(C#N)c5)cc34)cc21 [P-291, 4-[3-(3-tert-butylbenzimidazol-5-yl)-1H-pyrrolo[2,3-b]pyridin-5-yl]pyridine-2-carbonitrile]"
17,0.0001 to 1,"Cc1cc(C#Cc2cnc3[nH]cc(-c4ccc5ncn(C(C)(C)C)c5c4)c3n2)cc(C)n1 [P-282, 7-(3-tert-butylbenzimidazol-5-yl)-2-[2-(2,6-dimethyl-4-pyridyl)ethynyl]-5H-pyrrolo[2,3-b]pyrazine]"

# — patent publication US10160755B2 (Plexxikon Inc., priority 2015, dated 2018)
